According to ChEMBL document CHEMBL5257092, “Synthesis and biological evaluation of biaryl alkyl ethers as inhibitors of IDO1” (Bioorg Med Chem Lett, 2023):

Experiments:
[1] = Metabolic stability in mouse liver microsomes assessed as compound remaining at 0.5 uM incubated for 10 mins relative to control; format: ADME, Microsome; conditions: microsomes, 10 min, 0.5 µM
[2] = Metabolic stability in human liver microsomes assessed as compound remaining at 0.5 uM incubated for 10 mins relative to control; format: ADME, Microsome; conditions: microsomes, 10 min, 0.5 µM
[3] = target: Voltage-gated inwardly rectifying potassium channel KCNH2 (Homo sapiens, UniProt Q12809); assay: Inhibition of hERG at 10 uM relative to control; format: toxicity; conditions: 10 µM
[4] = target: Indoleamine 2,3-dioxygenase 1 (Homo sapiens, UniProt P14902); assay: Inhibition of IDO1 (unknown origin) expressed in human HeLa cells; format: cell-based
Cytochrome P450 2B6 = target: T1, Cytochrome P450 2B6 (Homo sapiens, UniProt P20813); assay: Inhibition of CYP2B6 (unknown origin); format: ADME
T1 sequence (P20813 whole entry): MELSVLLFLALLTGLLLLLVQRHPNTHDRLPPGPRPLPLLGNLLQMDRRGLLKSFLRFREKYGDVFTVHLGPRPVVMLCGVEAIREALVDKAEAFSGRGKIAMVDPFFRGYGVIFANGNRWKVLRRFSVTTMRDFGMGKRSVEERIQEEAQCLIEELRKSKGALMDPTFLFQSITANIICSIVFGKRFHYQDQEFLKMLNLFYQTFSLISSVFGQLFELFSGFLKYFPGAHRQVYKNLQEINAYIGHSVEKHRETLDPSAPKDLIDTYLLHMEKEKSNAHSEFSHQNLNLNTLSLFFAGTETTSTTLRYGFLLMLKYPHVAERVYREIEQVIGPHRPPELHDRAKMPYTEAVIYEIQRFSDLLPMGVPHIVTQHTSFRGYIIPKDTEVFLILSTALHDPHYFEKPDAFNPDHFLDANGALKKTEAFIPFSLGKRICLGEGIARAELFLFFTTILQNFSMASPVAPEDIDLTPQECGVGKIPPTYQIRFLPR

[5] = Metabolic stability in rat liver microsomes assessed as compound remaining at 0.5 uM incubated for 10 mins relative to control; format: ADME, Microsome; conditions: microsomes, 10 min, 0.5 µM
[6] = target: Tryptophan 2,3-dioxygenase (Homo sapiens, UniProt P48775); assay: Inhibition of TDO (unknown origin) expressed in HEK cells; format: cell-based; conditions: hek
Chain of Tryptophan 2,3-dioxygenase (P48775 whole entry): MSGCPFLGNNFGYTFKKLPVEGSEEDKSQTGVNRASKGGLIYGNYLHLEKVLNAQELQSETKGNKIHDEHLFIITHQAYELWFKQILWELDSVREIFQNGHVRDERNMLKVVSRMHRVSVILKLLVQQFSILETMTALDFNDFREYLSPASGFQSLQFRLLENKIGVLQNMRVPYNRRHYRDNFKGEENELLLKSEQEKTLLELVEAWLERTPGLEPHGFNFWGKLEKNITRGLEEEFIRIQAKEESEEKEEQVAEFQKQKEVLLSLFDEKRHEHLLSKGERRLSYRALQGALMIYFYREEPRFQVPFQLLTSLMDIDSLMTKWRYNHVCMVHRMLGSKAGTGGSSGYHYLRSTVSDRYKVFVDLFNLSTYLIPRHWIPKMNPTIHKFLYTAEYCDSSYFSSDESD

Chain of Voltage-gated inwardly rectifying potassium channel KCNH2 (Q12809 whole entry): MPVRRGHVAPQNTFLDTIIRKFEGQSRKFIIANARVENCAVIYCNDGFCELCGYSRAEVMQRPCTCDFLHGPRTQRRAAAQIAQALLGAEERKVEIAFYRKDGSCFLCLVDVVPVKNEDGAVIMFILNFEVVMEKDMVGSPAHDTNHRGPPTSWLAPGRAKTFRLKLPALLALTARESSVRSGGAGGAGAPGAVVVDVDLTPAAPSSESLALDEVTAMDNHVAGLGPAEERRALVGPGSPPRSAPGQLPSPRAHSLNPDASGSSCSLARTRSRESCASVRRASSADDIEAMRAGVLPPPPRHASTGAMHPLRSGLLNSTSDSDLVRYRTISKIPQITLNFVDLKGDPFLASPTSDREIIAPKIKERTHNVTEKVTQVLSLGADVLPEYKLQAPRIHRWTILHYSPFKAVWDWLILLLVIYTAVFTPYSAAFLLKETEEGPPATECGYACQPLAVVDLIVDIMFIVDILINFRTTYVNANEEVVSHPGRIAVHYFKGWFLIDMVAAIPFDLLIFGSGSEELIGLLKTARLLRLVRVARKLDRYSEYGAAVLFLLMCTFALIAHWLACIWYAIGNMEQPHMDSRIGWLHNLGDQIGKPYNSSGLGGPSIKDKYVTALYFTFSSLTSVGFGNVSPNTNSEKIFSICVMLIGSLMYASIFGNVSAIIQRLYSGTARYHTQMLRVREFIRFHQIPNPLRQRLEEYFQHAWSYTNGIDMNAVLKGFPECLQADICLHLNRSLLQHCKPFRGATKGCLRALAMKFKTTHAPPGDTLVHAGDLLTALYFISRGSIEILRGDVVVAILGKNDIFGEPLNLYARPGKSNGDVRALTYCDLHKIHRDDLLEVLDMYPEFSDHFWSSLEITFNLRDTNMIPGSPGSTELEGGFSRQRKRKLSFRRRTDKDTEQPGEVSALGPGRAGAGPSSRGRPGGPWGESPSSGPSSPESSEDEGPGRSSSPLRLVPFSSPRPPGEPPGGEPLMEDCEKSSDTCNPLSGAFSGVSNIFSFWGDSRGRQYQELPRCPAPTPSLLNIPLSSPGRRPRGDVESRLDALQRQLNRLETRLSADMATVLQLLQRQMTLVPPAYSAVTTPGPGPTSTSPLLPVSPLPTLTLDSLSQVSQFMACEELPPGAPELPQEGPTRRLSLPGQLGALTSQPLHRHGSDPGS
Chain of Indoleamine 2,3-dioxygenase 1 (P14902 whole entry): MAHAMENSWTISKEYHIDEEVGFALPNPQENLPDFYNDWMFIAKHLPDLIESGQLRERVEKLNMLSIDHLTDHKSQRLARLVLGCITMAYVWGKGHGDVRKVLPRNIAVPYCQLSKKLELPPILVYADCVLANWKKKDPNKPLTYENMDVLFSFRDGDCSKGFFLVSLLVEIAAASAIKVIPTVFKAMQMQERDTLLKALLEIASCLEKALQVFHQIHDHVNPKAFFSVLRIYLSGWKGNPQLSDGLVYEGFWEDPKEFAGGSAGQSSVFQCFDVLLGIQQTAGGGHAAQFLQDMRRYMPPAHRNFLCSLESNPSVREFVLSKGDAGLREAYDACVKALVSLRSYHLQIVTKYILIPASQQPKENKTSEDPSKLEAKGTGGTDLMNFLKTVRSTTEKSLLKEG

Cc1ccc(NC(=O)Nc2cc(-c3ccccc3-c3nc(=O)[nH]o3)cc3c2OCCCC3c2ccccc2)cc1 (stereo in doubt; 20)
Stability [1]: 40%
Stability [2]: 73%
inhibition (INH) [3]: 18%
IC50 [4]: 0.0046 µM
IC50 (Cytochrome P450 2B6): 0.78 µM
Stability [5]: 38%
IC50 [6]: > 6 µM
